According to PMC6832219, “Synthesis of Novel Baicalein Amino Acid Derivatives and Biological Evaluation as Neuroprotective Agents” (Molecules, 2019):
Read-outs that look alike come from different tables or passages of the source.

Tests used:
[1] = tested on: H9C2 cells; assay: Toxicity on normal H9C2 cells (MTT assay); format: cell-based; details: for viability at 100 µM: read-out: Survival Rate (%); for Survival Rate (%): 100 µM
[2] = tested on: H9C2 cells; assay: Toxicity on normal H9C2 cells (MTT assay); format: cell-based; details: MTT; for viability at 6.25 µM / viability at 12.5 µM / viability at 25 µM / viability at 50 µM / Survival Rate (%): H9C2 cells; for viability at 6.25 µM / viability at 12.5 µM / viability at 25 µM / viability at 50 µM: read-out: Survival Rate (%); for IC50: normal H9C2 cells
Description: To study cytotoxicity on normal cells, the cytotoxicity of compounds against normal H9C2 cells were tested.
(§1) The SH-SY5Y ([…]) and H9C2 ([…]) cell lines were obtained from the Chinese Academy of Medical Sciences and Peking Union Medical College. All of the cell lines were grown in dulbecco’s modified eagle medium (DMEM) with 10% (v/v) fetal bovine serum (FBS) and 1% (v/v) penicillin/streptomycin (Thermo Technologies, New York, NY, USA), under a humidified atmosphere containing 5% CO2 at 37 °C. The baicalein derivatives were dissolved in DMSO (Sigma, St. Louis, MO, USA) and added at various concentrations to the cell culture.
(§2) The protective effect of these compounds was evaluated on SH-SY5Y and H9C2 cell lines via the MTT method. The cells growing in the logarithmic phase were cultured in 96-well plates at a density 3 × 10^3 cells/well and incubated for 24 h. Then each well was treated with the required concentrations (50 µM concentrations, 25 µM concentrations, 12.5µM concentrations, 6.25 µM concentrations, and 3.125 µM concentrations) of baicalein derivatives, and incubated 36 h at 37 °C with 5% CO2. After that, the cells were induced by H2O2 (final concentration, […]) for 12 h. Control-differentiated cells were injected with new growth media at equal amounts. Before […] MTT solution (5 mg/mL) was added to each well, the cell culture fluid was discarded, and […] fresh cell culture fluid was added. The plate was incubated for a further 4 h at 37 °C. The cell supernatant medium was removed carefully, without disturbing the attached cells, and formazan crystals were solubilized by adding 150 μL DMSO into each well. The absorbance was measured at 490 nm with a plate reader (BIORAD 550 spectrophotometer, Bio-rad Life Science Development Ltd., Beijing, China). H2O2 was dissolved in DMEM medium. Wells without drugs were used as blanks. The EC50 values were defined as the concentrations that causes the maximum effect of 50%; IC50 values were defined as the concentration of compound which gives 50% growth inhibition, and were calculated using the GraphPad Prism 5. The proliferation rates of damaged SH-SY5Y cells were calculated in the following formula (1): [OD490 (compound) − OD490 (CoCl2)]/[OD490 (NGF) − OD490 (CoCl2)] × 100%(1) The EC50 values were using the equation −pEC50 = log Cmax − log 2 × (ΣP − 0.75 + 0.25Pmax + 0.25Pmin)(2) where Cmax is the maximum concentration, ΣP is the sum of proliferation rates, Pmax is the maximum value of the proliferation rate, and Pmin is the minimum value of the proliferation rate. Cell viability was expressed as a percentage of the control.
The inhibition rate was calculated in the following equation: % inhibition = 1 − (Sample group OD/Control group OD) × 100%(3)

[3] = tested on: injured SH-SY5Y cells; assay: Protective effect against tert-butyl hydroperoxide-induced SH-SY5Y neurotoxicity cells (MTT assay); format: cell-based; details: for viability at 3.125 µM / viability at 6.25 µM / viability at 12.5 µM / viability at 25 µM / viability at 50 µM / Proliferation Rate (%): injured SH-SY5Y cells; for viability at 3.125 µM / viability at 6.25 µM / viability at 12.5 µM / viability at 25 µM / viability at 50 µM: read-out: Proliferation Rate (%); for EC50: tert-butyl hydroperoxide-induced SH-SY5Y neurotoxicity, read-out: EC50 for protecting injured SH-SY5Y cells;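 for Proliferation Rate (%): 0% equals CoCl2-injured cells and 100% equals NGF-treated cells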
Description: The protective effects of baicalein derivatives in vitro was evaluated against tert-butyl, hydroperoxide-induced, SH-SY5Y neurotoxicity cells using an MTT assay. In addition, their toxicity evaluation was tested on normal H9C2 cells. The resulting proliferation rates (%) at different concentrations, as well as their 50% effective concentrations (EC50) for protecting damaged SH-SY5Y cells of the baicalein amino acid derivatives, are summarized in Table 2.
as §1, §2

| melting point | Compound | viability at 100 µM [1] | viability at 6.25 µM ([2]; 6.25 µM) | viability at 12.5 µM ([2]; 12.5 µM) | viability at 25 µM ([2]; 25 µM) | viability at 50 µM ([2]; 50 µM) | IC50 [2] | viability at 3.125 µM ([3]; Homo sapiens, 3.125 µM) | viability at 6.25 µM ([3]; Homo sapiens, 6.25 µM) | viability at 12.5 µM ([3]; Homo sapiens, 12.5 µM) | viability at 25 µM ([3]; Homo sapiens, 25 µM) | viability at 50 µM ([3]; Homo sapiens, 50 µM) | EC50 ([3]; Homo sapiens) | further results |
| --- | --- | --- | --- | --- | --- | --- | --- | --- | --- | --- | --- | --- | --- | --- |
| 195.8 °C | CC(C)(C)C(NC(=O)OCc1ccccc1)C(=O)Oc1cc2oc(-c3ccccc3)cc(=O)c2c(O)c1OC(=O)C(NC(=O)OCc1ccccc1)C(C)(C)C (stereo not drawn) [Compound 2] | 108% | 213% | 150% | 133% | 112% | > 100 µM | 45.1% | 48.2% | 81% | 107% | 94.2% | 4.79 µM |  |
|  | O=c1cc(-c2ccccc2)oc2cc(O)c(O)c(O)c12 [Baicalein, 5,6,7-trihydroxyflavone] | 168% | 212% | 198% | 179% | 170% | > 100 µM | 54.7% | 35.1% | 29.9% | 28.4% | 11.7% | 24.8 µM |  |
|  | 5,6-dihydroxy-4-oxo-2-phenyl-chroman-7-yl 2-{[(tert-butoxy)carbonyl]amino}-3-methyl-pentanoate [Compound 10] |  |  |  |  |  | > 100 µM |  |  |  |  |  |  | Survival Rate (%) [1]: 141.70%; Survival Rate (%) ([2]; 6.25 µM): 194.73%; Survival Rate (%) ([2]; 12.5 µM): 179.84%; Survival Rate (%) ([2]; 25 µM): 169.33%; Survival Rate (%) ([2]; 50 µM): 152.13%; Proliferation Rate (%) ([3]; 3.125 µM): 75.23%; Proliferation Rate (%) ([3]; 6.25 µM): 77.21%; Proliferation Rate (%) ([3]; 12.5 µM): 79.27%; Proliferation Rate (%) ([3]; 25 µM): 74.55%; Proliferation Rate (%) ([3]; 50 µM): 63.22%; EC50 [3]: 5.07 µM |
| 144.9 °C | O=C(NCCCCC(NC(=O)OCc1ccccc1)C(=O)Oc1cc2oc(-c3ccccc3)cc(=O)c2c(O)c1O)OCc1ccccc1 (stereo not drawn) [Compound 12, 5,6-dihydroxy-4-oxo-2-phenyl-4H-chromen-7-yl 2,6-di{[(benzyloxy)carbonyl]amino} hexanoate] | 184% | 216% | 207% | 200% | 187% | > 100 µM | 1.1% | 2.35% | 7.83% | 20.8% | 7.34% | 61.6 µM |  |
|  | CC(C)(C)OC(=O)NC(Cc1ccccc1)C(=O)Oc1c(O)cc2oc(-c3ccccc3)cc(=O)c2c1O (stereo not drawn) [Compound 6, 5,7-dihydroxy-4-oxo-2-phenyl-4H-chromen-6-yl 2-{[(tert-butoxy)carbonyl]amino}-3-phenylpropanoate] | 122% | 157% | 154% | 154% | 137% | > 100 µM | 8.61% | 20% | 24.8% | 21.6% | 16.7% | 42 µM |  |
|  | 1-tert-butyl 2-(5,7-dihydroxy-4-oxo-2-phenyl-chroman-6-yl) pyrrolidine-1,2-dicarboxylate [Compound 11] |  |  |  |  |  | 95.2 µM |  |  |  |  |  |  | Survival Rate (%) [1]: 45.75%; Survival Rate (%) ([2]; 6.25 µM): 70.98%; Survival Rate (%) ([2]; 12.5 µM): 67.32%; Survival Rate (%) ([2]; 25 µM): 61.98%; Survival Rate (%) ([2]; 50 µM): 60.67%; Proliferation Rate (%) ([3]; 3.125 µM): 47.94%; Proliferation Rate (%) ([3]; 6.25 µM): 86.25%; Proliferation Rate (%) ([3]; 12.5 µM): 78.16%; Proliferation Rate (%) ([3]; 25 µM): 74.48%; Proliferation Rate (%) ([3]; 50 µM): 64.80%; EC50 [3]: 5.82 µM |
| 199.7 °C | CC(C)C(NC(=O)OCc1ccccc1)C(=O)Oc1c(O)cc2oc(-c3ccccc3)cc(=O)c2c1O (stereo not drawn) [Compound 1, 5,7-dihydroxy-4-oxo-2-phenyl-4H-chromen-6-yl 2-{[(benzyloxy)carbonyl]amino}-3-methylbutanoate] | 204% | 270% | 260% | 231% | 216% | > 100 µM | 56% | 84.3% | 81.8% | 67.3% | 54.9% | 6.07 µM |  |
| 170.1 °C | CC(C)(C)C(NC(=O)OCc1ccccc1)C(=O)Oc1c(O)cc2oc(-c3ccccc3)cc(=O)c2c1O (stereo not drawn) [Compound 3, 5,7-dihydroxy-4-oxo-2-phenyl-4H-chromen-6-yl 2-{[(benzyloxy)carbonyl]amino}-3,3-dimethylbutanoate] | 104% | 144% | 137% | 135% | 132% | > 100 µM | 15.3% | 14.8% | 8.1% | 0.15% | -0.18% | 62.4 µM |  |
|  | CC1=NN(c2ccccc2)C(=O)C1 [Edaravone, reference compound] |  |  |  |  |  |  | 61.4% | 85.8% | 76.1% | 69.9% | 60.7% | 5.62 µM |  |

| Compound | melting point | viability at 100 µM [1] | viability at 6.25 µM ([2]; 6.25 µM) | viability at 12.5 µM ([2]; 12.5 µM) | viability at 25 µM ([2]; 25 µM) | viability at 50 µM ([2]; 50 µM) | IC50 [2] | viability at 3.125 µM ([3]; Homo sapiens, 3.125 µM) | viability at 6.25 µM ([3]; Homo sapiens, 6.25 µM) | viability at 12.5 µM ([3]; Homo sapiens, 12.5 µM) | viability at 25 µM ([3]; Homo sapiens, 25 µM) | viability at 50 µM ([3]; Homo sapiens, 50 µM) | EC50 ([3]; Homo sapiens) | further results |
| --- | --- | --- | --- | --- | --- | --- | --- | --- | --- | --- | --- | --- | --- | --- |
| CC(NC(=O)OC(C)(C)C)C(=O)Oc1c(O)cc2oc(-c3ccccc3)cc(=O)c2c1O (stereo not drawn) [Compound 14, 5,7-dihydroxy-4-oxo-2-phenyl-4H-chromen-6-yl 2-{[(tert-butoxy)carbonyl]amino} propanoate] | 196.7 °C | 97.1% | 185% | 166% | 137% | 129% | > 100 µM | 0.35% | 3.34% | 7.09% | 4.09% | 0.1% | 74.9 µM |  |
| CN(CC(=O)Oc1cc2oc(-c3ccccc3)cc(=O)c2c(O)c1OC(=O)CN(C)C(=O)OC(C)(C)C)C(=O)OC(C)(C)C [Compound 13, 7-[(2-{[(tert-butoxy)carbonyl](methyl)amino}acetyl)oxy]-5-hydroxy-4-oxo-2-phenyl-4H-chromen-6-yl 2-{[(tert-butoxy)carbonyl](methyl)amino}acetate] | 205.1 °C | 123% | 215% | 166% | 152% | 132% | > 100 µM | 40.1% | 92.1% | 91.5% | 73% | 65.9% | 5.42 µM |  |
